The text below walks through data of US8791264B2 (Purdue Pharma L.P., priority 2006, dated 2014).

The target in assay [1] is T1, N-type calcium channel (NTCC) (Homo sapiens, UniProt Q00975).
T1 construct: host or cells: IMR32 cells differentiated with dibutyryl cAMP and bromodeoxyuridine
The experiment in a line: FLIPR calcium mobilization assay for N-type calcium channel. Type of assay: cell-based. The conditions noted are these: calcium mobilization in vitro assay; differentiated IMR32 cells. The procedure, abridged:
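Differentiated IMR32 cells (8 days, dibutyryl cAMP and BrdU) loaded with 3 μM Fluo-4 during 90 mM KCl pre-stimulation, with compound at about 846 pM to 17 μM plus 5 μM nitrendipine. After washes in compound, FLIPR read basal fluorescence 315 s, then 45 s after KCl addition (final 90 mM).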
A general note: Calcium flux is commonly read through the fluorescence of an indicator in the cells.

The target of assay [2] is T2, recombinant rat L-type calcium channel (LTCC) subunits (α1c, α2δ, and β1) (Rattus norvegicus, UniProt P22002).
T2 construct: expressed in transfected cells
The experiment in a line: FLIPR calcium mobilization assay for L-type calcium channel. Type of assay: cell-based. The following applies: calcium mobilization in vitro assay; HEK293 cells expressing rat LTCC. How it is done: Recombinant human embryonal kidney cells (HEK293, ATCC) stably transfected with either N-type calcium channel (NTCC) subunits (α1b, α2δ, and ⊖3) or L-type calcium channel (LTCC) subunits (α1, α2δ, and β1) were routinely cultured in growth medium consisting of Dulbecco's Modified Eagles Medium containing 10% FBS, 100 U/mL penicillin, 100 μg/mL streptomycin, 4 mM L-glutamine, 500 μg/mL geneticin (G418), 20 μg/mL Blasticidin S (InVivogen, San Diego, Calif.) and 500 μg/mL zeocin (InVivogen).
FLIPR Calcium Mobilization Assay for L-Type Calcium Channel.
One day prior to performing this assay, HEK293 cells stably expressing recombinant rat L-type calcium channel (LTCC) subunits (α1c, α2δ, and β1) were trypsinized, then seeded on poly-D-lysine-coated 96-well clear-bottom black plates (Becton Dickinson, Franklin Lakes, N.J.) at 75,000 cells/well. On the day of the assay, the plates were washed with LTCC wash buffer (127 mM NaCl, 2 mM MgCl2, 700 μM NaH2PO4, 5 mM CaCl2, 5 mM NaHCO3, 8 mM HEPES, 10 mM glucose, pH 7.4), then loaded with 0.1 mL of LTCC wash buffer containing Fluo-4 (3 μM final concentration, Molecular Probes, Eugene, Oreg.). After 1 hour, the cells were washed with 0.1 mL LTCC wash buffer and resuspended in 0.05 mL LTCC assay buffer (same composition as LTCC wash buffer). Plates were then transferred to a FLIPR^96 for assay. The FLIPR measured basal Fluo-4 fluorescence for 15 seconds, then is added 0.05 mL of each compound tested diluted in LTCC assay buffer at final concentrations ranging from about 846 pM to about 17 μM. Fluo-4 fluorescence was then measured for 5 minutes. 0.1 mL KCl agonist dissolved in LTCC assay buffer was then added to the cells to produce a final concentration of 90 mM KCl, and fluorescence was measured for another 45 seconds. Data were collected over the entire time course and analyzed using Excel, Graph Pad Prism, or an in-house regression analysis software.

T1 sequence (Q00975 whole entry): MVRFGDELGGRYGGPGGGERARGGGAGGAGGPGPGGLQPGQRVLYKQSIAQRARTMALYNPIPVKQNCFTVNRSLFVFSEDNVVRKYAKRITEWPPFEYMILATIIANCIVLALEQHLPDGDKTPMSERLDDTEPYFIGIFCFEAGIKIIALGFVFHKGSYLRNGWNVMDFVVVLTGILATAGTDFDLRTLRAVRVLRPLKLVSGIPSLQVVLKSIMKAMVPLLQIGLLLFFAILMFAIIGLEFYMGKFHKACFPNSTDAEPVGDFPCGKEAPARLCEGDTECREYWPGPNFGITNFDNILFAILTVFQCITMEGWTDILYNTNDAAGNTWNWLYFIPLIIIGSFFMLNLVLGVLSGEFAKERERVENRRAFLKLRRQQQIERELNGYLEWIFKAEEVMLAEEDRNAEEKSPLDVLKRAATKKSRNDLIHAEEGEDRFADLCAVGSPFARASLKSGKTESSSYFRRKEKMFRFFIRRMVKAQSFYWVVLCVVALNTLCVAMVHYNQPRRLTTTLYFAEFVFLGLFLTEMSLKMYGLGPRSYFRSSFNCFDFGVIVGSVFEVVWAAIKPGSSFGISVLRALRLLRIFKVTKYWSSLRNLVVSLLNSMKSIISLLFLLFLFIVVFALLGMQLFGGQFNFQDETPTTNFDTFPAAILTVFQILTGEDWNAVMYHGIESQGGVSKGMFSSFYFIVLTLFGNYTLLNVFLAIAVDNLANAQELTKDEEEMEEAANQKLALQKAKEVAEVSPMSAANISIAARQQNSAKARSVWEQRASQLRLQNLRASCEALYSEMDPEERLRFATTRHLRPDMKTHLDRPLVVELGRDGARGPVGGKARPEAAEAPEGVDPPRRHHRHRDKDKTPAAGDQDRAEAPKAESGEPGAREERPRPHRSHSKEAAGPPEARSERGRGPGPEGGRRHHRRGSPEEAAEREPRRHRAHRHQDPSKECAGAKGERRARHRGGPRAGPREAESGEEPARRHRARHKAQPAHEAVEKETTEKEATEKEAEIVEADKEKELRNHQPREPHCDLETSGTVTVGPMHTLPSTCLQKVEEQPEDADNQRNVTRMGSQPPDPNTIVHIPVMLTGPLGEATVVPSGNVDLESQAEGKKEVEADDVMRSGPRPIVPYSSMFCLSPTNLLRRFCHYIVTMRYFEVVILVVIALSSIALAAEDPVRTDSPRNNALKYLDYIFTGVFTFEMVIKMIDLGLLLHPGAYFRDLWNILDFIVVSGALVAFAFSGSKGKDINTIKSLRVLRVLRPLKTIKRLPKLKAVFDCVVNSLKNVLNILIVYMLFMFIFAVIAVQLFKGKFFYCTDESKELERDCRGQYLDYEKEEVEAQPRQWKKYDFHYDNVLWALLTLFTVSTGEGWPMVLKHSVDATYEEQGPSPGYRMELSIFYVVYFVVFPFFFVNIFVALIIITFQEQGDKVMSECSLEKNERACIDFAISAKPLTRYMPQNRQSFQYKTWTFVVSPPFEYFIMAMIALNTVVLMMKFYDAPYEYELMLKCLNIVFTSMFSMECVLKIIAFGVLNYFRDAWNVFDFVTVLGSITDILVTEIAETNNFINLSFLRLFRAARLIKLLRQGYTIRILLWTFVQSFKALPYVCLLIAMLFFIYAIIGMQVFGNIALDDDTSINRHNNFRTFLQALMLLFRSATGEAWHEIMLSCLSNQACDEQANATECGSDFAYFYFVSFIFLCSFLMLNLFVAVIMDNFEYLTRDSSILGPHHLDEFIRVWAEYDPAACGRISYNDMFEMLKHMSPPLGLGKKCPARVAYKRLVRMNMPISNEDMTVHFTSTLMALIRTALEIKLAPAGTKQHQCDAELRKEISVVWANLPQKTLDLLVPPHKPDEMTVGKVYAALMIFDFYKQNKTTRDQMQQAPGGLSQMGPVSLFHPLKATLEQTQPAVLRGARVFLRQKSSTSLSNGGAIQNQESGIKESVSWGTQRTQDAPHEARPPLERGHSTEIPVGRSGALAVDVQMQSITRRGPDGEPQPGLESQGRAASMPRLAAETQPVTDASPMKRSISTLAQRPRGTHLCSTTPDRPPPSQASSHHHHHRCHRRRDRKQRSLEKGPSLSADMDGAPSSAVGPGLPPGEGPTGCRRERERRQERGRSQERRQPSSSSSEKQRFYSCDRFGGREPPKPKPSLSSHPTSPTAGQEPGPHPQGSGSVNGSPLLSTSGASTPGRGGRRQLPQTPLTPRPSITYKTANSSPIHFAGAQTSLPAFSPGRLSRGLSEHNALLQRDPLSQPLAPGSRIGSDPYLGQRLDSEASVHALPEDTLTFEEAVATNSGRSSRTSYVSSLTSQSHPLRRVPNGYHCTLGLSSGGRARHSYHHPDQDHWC
T1 sequence (P54289 25-956 partner limits assumed): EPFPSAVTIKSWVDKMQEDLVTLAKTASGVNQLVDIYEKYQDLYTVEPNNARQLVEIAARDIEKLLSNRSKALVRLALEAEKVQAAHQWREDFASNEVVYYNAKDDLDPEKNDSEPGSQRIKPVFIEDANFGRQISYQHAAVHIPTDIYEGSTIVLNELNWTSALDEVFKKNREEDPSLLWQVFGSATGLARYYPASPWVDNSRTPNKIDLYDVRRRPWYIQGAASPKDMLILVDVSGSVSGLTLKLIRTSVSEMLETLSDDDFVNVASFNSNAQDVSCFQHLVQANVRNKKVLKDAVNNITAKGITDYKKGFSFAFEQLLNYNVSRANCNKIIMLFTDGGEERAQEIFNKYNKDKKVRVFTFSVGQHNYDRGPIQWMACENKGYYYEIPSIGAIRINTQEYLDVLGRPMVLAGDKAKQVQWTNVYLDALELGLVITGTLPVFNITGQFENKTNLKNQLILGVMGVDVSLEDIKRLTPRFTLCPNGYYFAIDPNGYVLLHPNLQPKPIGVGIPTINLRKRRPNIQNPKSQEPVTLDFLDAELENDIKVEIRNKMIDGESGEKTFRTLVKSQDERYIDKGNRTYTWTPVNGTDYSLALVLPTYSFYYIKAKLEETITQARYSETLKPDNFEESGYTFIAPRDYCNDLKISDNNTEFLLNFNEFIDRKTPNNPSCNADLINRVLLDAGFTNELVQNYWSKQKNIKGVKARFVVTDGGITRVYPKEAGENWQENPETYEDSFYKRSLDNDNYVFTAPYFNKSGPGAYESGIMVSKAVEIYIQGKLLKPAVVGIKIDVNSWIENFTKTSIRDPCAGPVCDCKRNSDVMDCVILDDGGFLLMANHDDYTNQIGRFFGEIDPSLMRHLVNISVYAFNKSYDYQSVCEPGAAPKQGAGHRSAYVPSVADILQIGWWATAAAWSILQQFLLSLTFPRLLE
T1 sequence (P54289 957-1103 partner limits assumed): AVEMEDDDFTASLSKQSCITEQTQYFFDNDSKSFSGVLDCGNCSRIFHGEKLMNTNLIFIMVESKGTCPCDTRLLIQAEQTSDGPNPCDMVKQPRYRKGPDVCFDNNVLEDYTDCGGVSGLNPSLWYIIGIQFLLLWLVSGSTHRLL
T1 sequence (P54284 whole entry partner): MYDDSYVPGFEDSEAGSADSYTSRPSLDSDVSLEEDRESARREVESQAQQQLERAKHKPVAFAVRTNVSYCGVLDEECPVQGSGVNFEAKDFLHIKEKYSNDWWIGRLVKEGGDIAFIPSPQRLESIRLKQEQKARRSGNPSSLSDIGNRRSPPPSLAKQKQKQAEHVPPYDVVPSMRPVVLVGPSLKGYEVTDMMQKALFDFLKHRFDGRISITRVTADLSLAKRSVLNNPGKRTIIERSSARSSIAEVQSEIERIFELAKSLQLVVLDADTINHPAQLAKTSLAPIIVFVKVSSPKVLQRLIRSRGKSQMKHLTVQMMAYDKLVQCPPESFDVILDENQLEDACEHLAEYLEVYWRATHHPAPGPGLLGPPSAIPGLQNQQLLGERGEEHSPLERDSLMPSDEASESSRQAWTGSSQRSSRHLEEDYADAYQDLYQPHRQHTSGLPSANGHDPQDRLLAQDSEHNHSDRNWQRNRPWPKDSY

What is called IC50 is the concentration needed to halve the response being measured. Consider `COc1ccc(CNCC(=O)N2CCC(N(C(C)C)S(=O)(=O)c3cccc(C(F)(F)F)c3)CC2)cc1` [Compound 94, N-Isopropyl-N-{1-[2-(4-methoxy-benzylamino)acetyl]-piperidin-4-yl}-3-trifluoromethylbenzenesulfonamide], for which the IC50 is 700 nM in assay [1] and 10000 to 20000 nM in assay [2].

Turning to `CCC(C(=O)N1CCC(N(C(C)C)S(=O)(=O)c2cccc(C(F)(F)F)c2)CC1)N(C)Cc1ccccc1` (stereo not drawn) [Compound 96, N-{1-[2-(Benzyl-methyl-amino)butyryl]-piperidin-4-yl}-N-isopropyl-3-trifluoromethylbenzenesulfonamide], the figures for the IC50 in assay [1] and in assay [2] were 820 nM and 4410 nM, respectively.

Take `COc1ccc(CNCC(=O)N2CCC(N(C3CC3)S(=O)(=O)c3cccc(C(F)(F)F)c3)CC2)cc1` [Compound 99, N-Cyclopropyl-N-{1-[2-(4-methoxybenzylamino)acetyl]-piperidin-4-yl}-3-trifluoromethylbenzenesulfonamide]: the values for the IC50 in assay [1] and in assay [2] were 350 nM and above 20000 nM, respectively.

Take `COc1ccc(CNCC(=O)N2CCC(N(C3CC3)S(=O)(=O)c3ccc(Cl)cc3)CC2)cc1` [Compound 100, 4-Chloro-N-cyclopropyl-N-{1-[2-(4-methoxybenzylamino)acetyl]-piperidin-4-yl}-benzenesulfonamide]: the IC50 in assay [1] is 660 nM; in assay [2], 10000 to 20000 nM.

For `COc1ccccc1CNCC(=O)N1CCC(N(C2CC2)S(=O)(=O)c2ccc(Cl)cc2)CC1` [Compound 101, 4-Chloro-N-cyclopropyl-N-{1-[2-(2-methoxybenzylamino)acetyl]-piperidin-4-yl}-benzenesulfonamide], the IC50 in assay [1] is 630 nM; in assay [2], 8100 nM.

For the compound `CC(C)N(C1CCN(C(=O)CNCC2CCCCC2)CC1)S(=O)(=O)c1cccc(C(F)(F)F)c1` [Compound 102, N-{1-[2-(Cyclohexylmethylamino)acetyl]-piperidin-4-yl}-N-isopropyl-3-trifluoromethylbenzenesulfonamide], the IC50 is 220 nM in assay [1] and above 20000 nM in assay [2].

Take `CC(C)N(C1CCN(C(=O)CN(CCO)Cc2ccccc2)CC1)S(=O)(=O)c1cccc(C(F)(F)F)c1` [Compound 103, N-(1-{2-[Benzyl-(2-hydroxyethyl)-amino]acetyl}-piperidin-4-yl)-N-isopropyl-3-trifluoromethylbenzenesulfonamide]: the values for the IC50 in assay [1] and in assay [2] were 700 nM and 7730 nM, respectively.

For `CC(C)N(C1CCN(CCC(=O)Nc2ccc(F)cc2)CC1)S(=O)(=O)c1cccc(C(F)(F)F)c1` [Compound 107a, N-(4-Fluorophenyl)-3-{4-[isopropyl-(3-trifluoromethylbenzenesulfonyl)amino]-piperidin-1-yl}-propionamide], the IC50 in assay [1] was found to be 570 nM; in assay [2] it was 9750 nM.

For `COc1ccccc1NC(=O)CCN1CCC(N(C(C)C)S(=O)(=O)c2cccc(C(F)(F)F)c2)CC1` [Compound 107b, 3-{4-[Isopropyl-(3-trifluoromethylbenzenesulfonyl)amino]-piperidin-1-yl}-N-(2-methoxyphenyl)-propionamide], the figures for the IC50 in assay [1] and in assay [2] were 670 nM and above 20000 nM, respectively.

Turning to `CC(C)N(C1CCN(C(=O)[C@H](Cc2ccccc2)NCC(N)=O)CC1)S(=O)(=O)c1cccc(C(F)(F)F)c1` [Compound 109, (S)-2-(1-Benzyl-2-{4-[isopropyl(3-trifluoromethylbenzene-sulfonyl)amino]-piperidin-1-yl}-2-oxo-ethylamino)-acetamide], the IC50 stood at 790 nM in assay [1] and 7430 nM in assay [2].

`O=C(Nc1cc(C(F)(F)F)cc(C(F)(F)F)c1)N1CCC(N(C2CC2)S(=O)(=O)c2cccc(C(F)(F)F)c2)CC1` [Compound 111, 4-[Cyclopropyl-(3-trifluoromethylbenzenesulfonyl)amino]-piperidine-1-carboxylic acid (3,5-bis-trifluoromethylphenyl)-amide]: the IC50 in assay [1] was 2320 nM; in assay [2] it was above 20000 nM.

As to `CN(C1CCN(C(=O)Nc2cc(C(F)(F)F)cc(C(F)(F)F)c2)CC1)S(=O)(=O)c1ccccc1` [Compound 112, (4-Benzenesulfonyl-methyl-amino)-piperidine-1-carboxylic acid (3,5-bis-trifluoromethylphenyl)-amide], the figures for the IC50 in assay [1] and in assay [2] were 640 nM and above 20000 nM, respectively.

Consider `CC(C)CC(O)C(=O)N1CCC(N(C(C)C)S(=O)(=O)c2cccc(C(F)(F)F)c2)CC1` (stereo not drawn) [N-[1-(2-hydroxy-4-methyl-pentanoyl)-piperidin-4-yl]-N-isopropyl-3-trifluoromethyl-benzenesulfonamide], for which the IC50 in assay [1] is 950 nM; in assay [2], 5490 nM.

For the compound `Cc1ccccc1NCCC(=O)N1CCC(N(C(C)C)S(=O)(=O)c2cccc(C(F)(F)F)c2)CC1` [N-isopropyl-N-[1-(3-o-tolylamino-propionyl)-piperidin-4-yl]-3-trifluoromethyl-benzenesulfonamide], the IC50 in assay [1] amounted to 430 nM; in assay [2] it was 5280 nM.

On to `COc1ccccc1NCCC(=O)N1CCC(N(C(C)C)S(=O)(=O)c2cccc(C(F)(F)F)c2)CC1` [N-isopropyl-N-{1-[3-(2-methoxy-phenylamino)-propionyl]-piperidin-4-yl}-3-trifluoromethyl-benzenesulfonamide], for which the values for the IC50 in assay [1] and in assay [2] were 370 nM and 3800 nM, respectively.

Take `CC(C)N(C1CCN(C(=O)CCNc2ccccc2OC(F)(F)F)CC1)S(=O)(=O)c1cccc(C(F)(F)F)c1` [N-isopropyl-N-{1-[3-(2-trifluoromethoxy-phenylamino)-propionyl]-piperidin-4-yl}-3-trifluoromethyl-benzenesulfonamide]: the IC50 was 330 nM in assay [1] and above 20000 nM in assay [2].

Consider `COc1cccc(NCCC(=O)N2CCC(N(C(C)C)S(=O)(=O)c3cccc(C(F)(F)F)c3)CC2)c1` [N-isopropyl-N-{1-[3-(3-methoxy-phenylamino)-propionyl]-piperidin-4-yl}-3-trifluoromethyl-benzenesulfonamide], for which the IC50 in assay [1] was 420 nM; in assay [2], 10000 to 20000 nM.

`CC(C)N(C1CCN(C(=O)CCNc2cccc(OC(F)(F)F)c2)CC1)S(=O)(=O)c1cccc(C(F)(F)F)c1` [N-isopropyl-N-{1-[3-(3-trifluoromethoxy-phenylamino)-propionyl]-piperidin-4-yl}-3-trifluoromethyl-benzenesulfonamide]: the IC50 in assay [1] was 770 nM; in assay [2], above 20000 nM.

With `COc1ccc(CNCCC(=O)N2CCC(N(C(C)C)S(=O)(=O)c3cccc(C(F)(F)F)c3)CC2)cc1` [N-isopropyl-N-{1-[3-(4-methoxy-benzylamino)-propionyl]-piperidin-4-yl}-3-trifluoromethyl-benzenesulfonamide], the IC50 stood at 320 nM in assay [1] and 4300 nM in assay [2].

For `CC(C)N(C1CCN(C(=O)C(N)Cc2ccc(OCc3ccccc3)cc2)CC1)S(=O)(=O)c1cccc(C(F)(F)F)c1` (stereo not drawn) [N-{1-[2-amino-3-(4-benzyloxy-phenyl)-propionyl]-piperidin-4-yl}-N-isopropyl-3-trifluoromethyl-benzenesulfonamide], the IC50 in assay [1] was 710 nM; in assay [2], 2380 nM.

For the compound `COc1cccc(NCCC(=O)N2CCC(N(C(C)C)S(=O)(=O)c3cccc(C(F)(F)F)c3)CC2)c1OC` [N-{1-[3-(2,3-dimethoxy-phenylamino)-propionyl]-piperidin-4-yl}-N-isopropyl-3-trifluoromethyl-benzenesulfonamide], the IC50 in assay [1] is 310 nM; in assay [2], 10000 to 20000 nM.

`CC(C)N(C1CCN(C(=O)CCNc2ccc(F)cc2F)CC1)S(=O)(=O)c1cccc(C(F)(F)F)c1` [N-{1-[3-(2,4-difluoro-phenylamino)-propionyl]-piperidin-4-yl}-N-isopropyl-3-trifluoromethyl-benzenesulfonamide]: the IC50 was 830 nM in assay [1] and above 20000 nM in assay [2].

`COc1ccc(OC)c(NCCC(=O)N2CCC(N(C(C)C)S(=O)(=O)c3cccc(C(F)(F)F)c3)CC2)c1` [N-{1-[3-(2,5-dimethoxy-phenylamino)-propionyl]-piperidin-4-yl}-N-isopropyl-3-trifluoromethyl-benzenesulfonamide]: the IC50 in assay [1] is 750 nM; in assay [2] it was above 20000 nM.

As for `Cc1cccc(C)c1NCCC(=O)N1CCC(N(C(C)C)S(=O)(=O)c2cccc(C(F)(F)F)c2)CC1` [N-{1-[3-(2,6-dimethyl-phenylamino)-propionyl]-piperidin-4-yl}-N-isopropyl-3-trifluoromethyl-benzenesulfonamide], the IC50 is 460 nM in assay [1] and above 20000 nM in assay [2].
